Experimental data taken from patent US10329289B2, “6,7-dihydro-5H-pyrrolo[3,4-B]pyridin-5-one allosteric modulators of the M4 muscarinic acetylcholine receptor” (Merck Sharp & Dohme Corp., priority 2015, dated 2019).

molecular target: T1, human M4 muscarinic acetylcholine receptor (Homo sapiens, UniProt P08173); experiment: human FLIPR-based M4 PAM assay (Ca2+ mobilization, CHO-K1 cells with human M4 receptor and Gαqi5); type: cell-based; conditions: acetylcholine at 20% of maximum response, read-out: M4 PAM IP
T1 construct: expressed in transfected cells; host or cells: CHO-K1
T1 sequence (P08173 1-479): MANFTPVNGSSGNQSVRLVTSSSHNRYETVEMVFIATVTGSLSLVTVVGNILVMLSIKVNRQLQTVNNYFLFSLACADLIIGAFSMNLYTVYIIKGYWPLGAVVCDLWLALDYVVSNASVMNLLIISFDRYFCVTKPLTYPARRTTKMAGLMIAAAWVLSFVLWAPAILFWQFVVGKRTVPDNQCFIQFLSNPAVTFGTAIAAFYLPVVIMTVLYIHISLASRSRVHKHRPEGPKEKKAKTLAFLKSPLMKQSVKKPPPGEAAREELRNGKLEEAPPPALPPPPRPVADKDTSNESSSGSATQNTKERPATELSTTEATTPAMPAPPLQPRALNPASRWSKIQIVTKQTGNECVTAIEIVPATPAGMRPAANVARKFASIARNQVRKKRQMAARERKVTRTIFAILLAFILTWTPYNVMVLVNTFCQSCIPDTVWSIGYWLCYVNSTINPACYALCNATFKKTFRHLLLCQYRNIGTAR
Outline: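 CHO-K1 cells stably expressing human M4 and chimeric Gαqi5 were dye-loaded ~1 h at 37 °C and read for Ca2+ fluorescence. Compound followed by acetylcholine at an EC20 (sometimes an EC70 third addition); inflection point from a 4-parameter logistic fit.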

In order of falling EC50:
1. Cc1cc2c(nc1N1CCC(Oc3cnn(C)c3)CC1)[C@H](CO)N(C)C2=O [Example 358, (R)-7-(hydroxymethyl)-3,6-dimethyl-2-(4-((1-methyl-1H-pyrazol-4-yl)oxy)piperidin-1-yl)-6,7-dihydro-5H-pyrrolo[3,4-b]pyridin-5-one]  8.07 µM
2. Cc1cc2c(nc1N1CCC(Oc3cnc4[nH]nc(C)c4c3)CC1)CNC2=O [Example 197, 3-methyl-2-(4-((3-methyl-1H-pyrazolo[3,4-b]pyridin-5-yl)oxy)piperidin-1-yl)-6,7-dihydro-5H-pyrrolo[3,4-b]pyridin-5-one]  6.07 µM
3. Cc1cc2c(nc1N1CCC(OCc3ccncc3)CC1)CNC2=O [Example 175A, 3-methyl-2-(4-(pyridin-4-ylmethoxy)piperidin-1-yl)-6,7-dihydro-5H-pyrrolo[3,4-b]pyridin-5-one]  3.1 µM
4. Cc1cc2c(nc1N1CCC(OCC3(C)CCCC3)CC1)CNC2=O [Example 178, 3-methyl-2-(4-((1-methylcyclopentyl)meth-oxy)piperidin-1-yl)-6,7-dihydro-5H-pyrrolo[3,4-b]pyridin-5-one]  2.48 µM
5. Cc1cc2c(nc1N1CC[C@@H](Oc3cccc4c3COC4)[C@@H](F)C1)CNC2=O [Example 39, 2-((3S,4R)-4-((1,3-dihydro-2-benzofuran-4-yl)oxy)-3-fluoropiperidin-1-yl)-3-methyl-6,7-dihydro-5H-pyrrolo[3,4-b]pyridin-5-one]  1.6 µM
6. Cc1c(N2CCC(Oc3ccc4c(c3)CCOC4)CC2)nc2c(c1C)C(=O)N(C)[C@H]2CO [Example 370, (R)-7-(hydroxymethyl)-2-(4-(isochroman-6-yloxy)piperidin-1-yl)-3,4,6-trimethyl-6,7-dihydro-5H-pyrrolo[3,4-b]pyridin-5-one]  1.19 µM
7. Cc1cc2c(nc1N1CC[C@@H](Oc3ccc4c(c3)COC4)[C@H](F)C1)[C@H](CO)N(C)C2=O [Example 279A, (R)-2-((3R,4R)-4-((1,3-dihydro-2-benzofuran-5-yl)oxy)-3-fluoropiperidin-1-yl)-7-(hydroxymethyl)-3,6-dimethyl-6,7-dihydro-5H-pyrrolo[3,4-b]pyridin-5-one]  0.909 µM
8. COc1ccc(OC2CCN(c3nc4c(cc3C)C(=O)N(CC3COC3)C4CC3COC3)CC2)cn1 (centres unmarked) [Example 255A, 2-(4-((6-methoxypyridin-3-yl)oxy)piperidin-1-yl)-3-methyl-6,7-bis(oxetan-3-ylmethyl)-6,7-dihydro-5H-pyrrolo[3,4-b]pyridin-5-one]  0.803 µM
9. Cc1cc2c(nc1N1CCC(Oc3ccc4c(c3)OCC4)CC1)[C@H](CO)N(C)C2=O [Example 356, (R)-2-(4-((2,3-dihydrobenzofuran-6-yl)oxy)piperidin-1-yl)-7-(hydroxymethyl)-3,6-dimethyl-6,7-dihydro-5H-pyrrolo[3,4-b]pyridin-5-one]  0.788 µM
10. Cc1c(N2CCC(Oc3ccc4c(c3)COCC4)CC2)nc2c(c1C)C(=O)N(C)[C@H]2CO (single isomer, unassigned) [Example 337D]  0.613 µM
11. CCc1cc2c(nc1N1CCC(OCC3CC3)CC1)CNC2=O [Example 176A, 2-(4-(cyclopropylmethoxy)piperidin-1-yl)-3-ethyl-6,7-dihydro-5H-pyrrolo[3,4-b]pyridin-5-one]  0.264 µM
12. Cc1cc2c(nc1N1CCC(Oc3ccc4c(c3)C[S+]([O-])C4)CC1)CNC2=O (single isomer, unassigned) [Example 168A]  0.209 µM
13. Cc1cc2c(nc1N1CCC(Oc3ccc4c(c3)C[S+]([O-])C4)CC1)CNC2=O (centres unmarked) [Example 167A, 3-methyl-2-(4-((2-oxido-1,3-dihydrobenzo[c]thio-phen-5-yl)oxy)piperidin-1-yl)-6,7-dihydro-5H-pyrrolo[3,4-b]pyridin-5-one]  0.188 µM
14. 3-methyl-2-(4-(3,3,3- trifluoro-2- hydroxypropoxy)piperi- din-1-yl)-6,7-dihydro- 5H-pyrrolo[3,4- b]pyridin-5-one [Example 179]  0.168 µM
15. Cc1cc2c(nc1N1CC[C@@H](Oc3cccc(C#N)c3)[C@H](O)C1)CNC2=O [Example 43A, 3-(((3R,4R)-3-hydroxy-1-(3-methyl-5-oxo-6,7-dihydro-5H-pyrrolo[3,4-b]pyridin-2-yl)piperidin-4-yl)oxy)benzonitrile]  0.155 µM
16. Cc1cc2c(nc1N1CCC(Oc3cnn(-c4ccccc4)c3)CC1)CNC2=O [Example 170A, 3-methyl-2-(4-((1-phenyl-1H-pyrazol-4-yl)oxy)piperidin-1-yl)-6,7-dihydro-5H-pyrrolo[3,4-b]pyridin-5-one]  0.129 µM
17. Cc1cc2c(nc1N1CCC(Oc3ccc4c(cnn4C)c3)CC1)CN(CCO)C2=O [Example 239A, 6-(2-hydroxyethyl)-3-methyl-2-(4-((1-methyl-1H-indazol-5-yl)oxy)piperidin-1-yl)-6,7-dihydro-5H-pyrrolo[3,4-b]pyridin-5-one]  0.086 µM
18. COc1ccc(OC2CCN(c3nc4c(cc3C)C(=O)N(Cc3ccncc3)C4=O)CC2)cn1 [Example 296, 2-(4-((6-Methoxypyridin-3-yl)oxy)piperidin-1-yl)-3-methyl-6-(pyridin-4-ylmethyl)-5H-pyrrolo[3,4-b]pyridine-5,7(6H)-dione]  0.083 µM
19. Cc1cc2c(nc1N1CCC(Oc3cnc4c(c3)COC4)CC1)[C@@H](CO)N(C)C2=O [Example 278A, (S)-2-(4-((5,7-dihydrofuro[3,4-b]pyridin-3-yl)oxy)piperidin-1-yl)-7-(hydroxymethyl)-3,6-dimethyl-6,7-dihydro-5H-pyrrolo[3,4-b]pyridin-5-one]  0.076 µM
20. CCc1cc2c(nc1N1CCC(Oc3ccc4c(c3)CCOC4)CC1)CN(CCO)C2=O [Example 266F, 3-ethyl-6-(2-hydroxyethyl)-2-(4-(isochroman-6-yloxy)piperidin-1-yl)-6,7-dihydro-5H-pyrrolo[3,4-b]pyridin-5-one]  0.057 µM
21. Cc1cc2c(nc1N1CCC(Oc3ccc(OC(C)C)nc3)CC1)CNC2=O [Example 62, 2-(4-((6-isopropoxypyridin-3-yl)oxy)piperidin-1-yl)-3-methyl-6,7-dihydro-5H-pyrrolo[3,4-b]pyridin-5-one]  0.055 µM
22. Cc1cncc(OC2CCN(c3nc4c(cc3C)C(=O)N(C)[C@@H]4CO)CC2)c1 [Example 343, (S)-7-(hydroxymethyl)-3,6-dimethyl-2-(4-((5-methylpyridin-3-yl)oxy)piperidin-1-yl)-6,7-dihydro-5H-pyrrolo[3,4-b]pyridin-5-one]  0.055 µM
23. Cc1cc2c(nc1N1CCC(Oc3ccc4c(c3)COC4)CC1)CN([C@H](C)CO)C2=O [Example 268C, (R)-2-(4-((1,3-dihydro-2-benzofuran-5-yl)oxy)piperidin-1-yl)-6-(1-hydroxypropan-2-yl)-3-methyl-6,7-dihydro-5H-pyrrolo[3,4-b]pyridin-5-one]  0.053 µM
24. C=Cc1cc2c(nc1N1CCC(Oc3ccc(OC)nc3)CC1)CNC2=O [Example 222, 2-(4-((6-methoxypyridin-3-yl)oxy)piperidin-1-yl)-3-vinyl-6,7-dihydro-5H-pyrrolo[3,4-b]pyridin-5-one]  0.05 µM
25. Cc1cc2c(nc1N1CC[C@@H](Oc3ccc(F)cc3)[C@@H](F)C1)CN(CCO)C2=O [Example 262, 2-((3S,4R)-3-fluoro-4-(4-fluorophenoxy)piperidin-1-yl)-6-(2-hydroxyethyl)-3-methyl-6,7-dihydro-5H-pyrrolo[3,4-b]pyridin-5-one]  0.043 µM
26. Cc1c(N2CCC(Oc3ccc4c(c3)C[C@@H](O)C4)CC2)nc2c(c1C)C(=O)NC2 [Example 334B, (S)-2-(4-((2-hydroxy-2,3-dihydro-1H-inden-5-yl)oxy)piperidin-1-yl)-3,4-dimethyl-6,7-dihydro-5H-pyrrolo[3,4-b]pyridin-5-one]  0.038 µM
27. Cc1cc2c(nc1N1CCC(Oc3cccc(C#N)c3)CC1)CNC2=O [Example 3, 3-((1-(3-methyl-5-oxo-6,7-dihydro-5H-pyrrolo[3,4-b]pyridin-2-yl)piperidin-4-yl)oxy)benzonitrile]  0.025 µM
28. COc1ccc(OC2CCN(c3nc4c(cc3C)C(=O)NC4O)CC2)cn1 (centres unmarked) [Example 298, 7-Hydroxy-2-(4-((6-methoxypyridin-3-yl)oxy)piperidin-1-yl)-3-methyl-6,7-dihydro-5H-pyrrolo[3,4-b]pyridin-5-one]  0.024 µM
29. CCc1cc2c(nc1N1CCC(OCC3(C)CC3)CC1)[C@@H](CO)N(C)C2=O [Example 341, (S)-3-ethyl-7-(hydroxymethyl)-6-methyl-2-(4-((1-methylcyclopropyl)methoxy)piperidin-1-yl)-6,7-dihydro-5H-pyrrolo[3,4-b]pyridin-5-one]  0.023 µM
30. Cc1cc2c(nc1N1CCC(Oc3ccc4c(c3)C[C@@H](O)C4)CC1)CNC2=O (single isomer, unassigned) [Example 324A]  0.022 µM
31. Cc1cc2c(nc1N1CC[C@@H](Oc3ccc4c(c3)CCOC4)[C@@H](F)C1)CNC2=O [Example 178A, 2-((3S,4R)-3-fluoro-4-(isochroman-6-yloxy)piperidin-1-yl)-3-methyl-6,7-dihydro-5H-pyrrolo[3,4-b]pyridin-5-one]  0.018 µM
32. Cc1cc2c(nc1N1CCC(OCC3(C)CC3)CC1)[C@@H](CO)N(C)C2=O [Example 339, (S)-7-(hydroxymethyl)-3,6-dimethyl-2-(4-((1-methylcyclopropyl)methoxy)piperidin-1-yl)-6,7-dihydro-5H-pyrrolo[3,4-b]pyridin-5-one]  0.013 µM
